Assay results: patent US9896441B2 (Lycera Corporation, priority 2014, dated 2018)

Experiments:
RORγ-LBD = molecular target: T1, RORγ-LBD (Homo sapiens, UniProt P51449); experiment: RORγ-Ligand Binding Domain (LBD) TR-FRET Assay; type: biochemical; details: for TR-FRET Assay Max Response: maximum response;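 as to TR-FRET Assay Max Response: 665/615 nm signal ratio set to 100 without ursolic acid or test compound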
T1 construct: made in house; host or cells: SF9 cells (baculovirus); used as diluted lysate
T1 sequence (P51449 269-508 limits assumed): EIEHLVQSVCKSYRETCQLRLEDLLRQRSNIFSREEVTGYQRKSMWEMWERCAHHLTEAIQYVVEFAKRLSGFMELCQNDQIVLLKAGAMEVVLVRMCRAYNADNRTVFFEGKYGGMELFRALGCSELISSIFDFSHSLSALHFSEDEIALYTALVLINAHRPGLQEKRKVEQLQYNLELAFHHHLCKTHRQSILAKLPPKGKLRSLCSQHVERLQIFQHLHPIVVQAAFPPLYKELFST
How it was run: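 Lysate from SF9 cells expressing His-RORγ-LBD is diluted to about 3 nM final in 50 mM Tris pH 7.0 assay buffer. A biotin-tagged SRC1 LXXLL peptide goes in at 200 nM final, plus ursolic acid at 2 μM final. Test compounds carry 1% DMSO final; signal read by TR-FRET.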

Gal4-RORγ-LBD = molecular target: T2, Gal4-RORγ-LBD (Homo sapiens, UniProt P51449); experiment: Gal4-RORγ Luciferase Reporter Assay in HEK-293T Cells; type: cell-based; details: HEK-293 cells; for Gal4-RORγ Assay Max Response: maximum response
T2 construct: expressed in transfected cells
T2 sequence (P51449 269-508 limits assumed): T1 sequence (P51449 269-508 limits assumed)
How it was run: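 Max Response was taken as the upper plateau of a 4-parameter logistic fit of luciferase signal, normalized to 100 for wells without ursolic acid or compound. Transiently Gal4-RORγ-LBD/Gal4-luc transfected HEK-293 cells carrying […] ursolic acid were incubated with test compounds (0.2% DMSO) overnight at 37 °C and read with One-Glo.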

[1] = luciferase reporter, with ursolic acid
[2] = luciferase reporter, in presence of ursolic acid

EC50 (RORγ-LBD; RORγ-LBD TR-FRET) | EC50 (Gal4-RORγ-LBD; [1]) | EC50 (RORγ-LBD; RORγ-LBD TR-FRET assay) | EC50 (Gal4-RORγ-LBD; [2]) | SMILES | also measured
< 500 nM | 500 to 5000 nM | – | – | CCOc1ncc(Cl)cc1S(=O)(=O)N1C[C@H](CCC(=O)O)Oc2ccc(/C=C/c3c(F)cccc3Cl)cc21 [Example 89CX, (S,E)-3-(4-((5-chloro-2-ethoxypyridin-3-yl)sulfonyl)-6-(2-chloro-6-fluorostyryl)-3,4-dihydro-2H-benzo[b][1,4]oxazin-2-yl)propanoic acid] | –
– | – | < 500 nM | 500 to 5000 nM | C[C@@H]1[C@H](O)Cc2ccc(/C=C/c3c(F)cccc3Cl)cc2N1S(=O)(=O)c1cccc(C(F)(F)F)c1 (racemic) [Example 170, (2R,3R)-7-((E)-2-Chloro-6-fluorostyryl)-2-methyl-1-((3-(trifluoromethyl)phenyl)sulfonyl)-1,2,3,4-tetrahydroquinolin-3-ol] | TR-FRET Assay Max Response (RORγ-LBD; RORγ-LBD TR-FRET assay): *** (a value in the range of greater than 150 to 200); Gal4-RORγ Assay Max Response (Gal4-RORγ-LBD; [2]): *** (a value in the range of greater than 150 to 200)
< 500 nM | 500 to 5000 nM | – | – | CC1CCC/C(=C\c2ccc3c(c2)N(S(=O)(=O)c2cccc(C(F)(F)F)c2)C[C@H](CCC(=O)O)O3)C1 (stereo partly drawn) [Example 95G, 3-((2S)-6-((E)-(3-methylcyclo-hexylidene)methyl)-4-((3-(trifluoromethyl)phenyl)sulfonyl)-3,4-dihydro-2H-benzo[b][1,4]-oxazin-2-yl)propanoic acid] | –
< 500 nM | > 10000 nM | – | – | C/C(=C\c1ccc2c(c1)N(S(=O)(=O)c1cn(C(F)F)nc1C)C[C@H](CCC(=O)O)O2)c1c(F)cccc1Cl [Example 86W, (S,E)-3-(6-(2-(2-chloro-6-fluorophenyl)prop-1-en-1-yl)-4-((1-(difluoromethyl)-3-methyl-1H-pyrazol-4-yl)sulfonyl)-3,4-dihydro-2H-benzo[b][1,4]oxazin-2-yl)propanoic acid] | –
< 500 nM | 500 to 5000 nM | – | – | O=C(O)C1Cc2ccc(/C=C/c3c(Cl)cccc3C(F)(F)F)cc2N(S(=O)(=O)c2cccc(C(F)(F)F)c2)C1 (stereo not shown) [Example 15D, (E)-7-(2-chloro-6-(trifluoromethyl)styryl)-1-((3-(trifluoromethyl)phenyl)sulfonyl)-1,2,3,4-tetrahydroquinoline-3-carboxylic acid] | –
< 500 nM | 500 to 5000 nM | – | – | O=C(O)CC[C@H]1CN(S(=O)(=O)c2cccc(C(F)(F)F)c2)c2cc(C=C3CCOCC3)ccc2O1 [Example 95N, (S)-3-(6-((tetrahydro-4H-pyran-4-ylidene)methyl)-4-((3-(trifluoromethyl)phenyl)sulfonyl)-3,4-dihydro-2H-benzo[b][1,4]oxazin-2-yl)propanoic acid] | –
< 500 nM | 500 to 5000 nM | – | – | CCOc1ncc(C(F)(F)F)cc1S(=O)(=O)N1C[C@H](CCC(=O)OC)Oc2ccc(/C=C/c3c(Cl)cccc3OC)cc21 [Example 89FB, methyl (S,E)-3-(6-(2-chloro-6-methoxystyryl)-4-((2-ethoxy-5-(trifluoromethyl)pyridin-3-yl)sulfonyl)-3,4-dihydro-2H-benzo[b][1,4]oxazin-2-yl)propanoate] | –
– | – | – | – | O=C(O)CC[C@H]1CN(S(=O)(=O)c2cccc(C(F)(F)F)c2)c2cc(C3CCCCC3)ccc2O1 [Example 194, (S)-3-(6-cyclohexyl-4-((3-(trifluoromethyl)phenyl)sulfonyl)-3,4-dihydro-2H-benzo[b][1,4]oxazin-2-yl)propanoic acid] | EC50 (RORγ-LBD; with 2 μM ursolic acid (RORγ antagonist), highest test concentration 10 μM): < 500 nM; EC50 (Gal4-RORγ-LBD; ursolic acid present, luciferase readout): < 500 nM
< 500 nM | 500 to 5000 nM | – | – | O=C(O)CC[C@H]1CN(S(=O)(=O)c2cc(C(F)(F)F)cnc2OCC(O)CO)c2cc(/C=C/c3c(F)cccc3Cl)ccc2O1 (stereo partly drawn) [Example 89FJ, 3-((2S)-6-((E)-2-chloro-6-fluorostyryl)-4-((2-(2,3-dihydroxypropoxy)-5-(trifluoromethyl)pyridin-3-yl)sulfonyl)-3,4-dihydro-2H-benzo[b][1,4]oxazin-2-yl)propanoic acid] | –
– | – | < 500 nM | > 10000 nM | CCOC(=O)C1CCN(CC[C@H]2CN(S(=O)(=O)c3cccc(C(F)(F)F)c3)c3cc(/C=C(\C)c4c(F)cccc4Cl)ccc3O2)CC1 [Example 119F, ethyl (S,E)-1-(2-(6-(2-(2-chloro-6-fluorophenyl)prop-1-en-1-yl)-4-((3-(trifluoromethyl)phenyl)sulfonyl)-3,4-dihydro-2H-benzo[b][1,4]oxazin-2-yl)ethyl)piperidine-4-carboxylate] | TR-FRET Assay Max Response (RORγ-LBD; RORγ-LBD TR-FRET assay): *** (a value in the range of greater than 150 to 200)
– | – | < 500 nM | 500 to 5000 nM | O=S(=O)(c1cccc(C(F)(F)F)c1)N1C[C@H](CO)Oc2ccc(Oc3ccccc3)cc21 [Example 130, (R)-(6-Phenoxy-4-((3-(trifluoromethyl)phenyl)sulfonyl)-3,4-dihydro-2H-benzo[b][1,4]oxazin-2-yl)methanol] | TR-FRET Assay Max Response (RORγ-LBD; RORγ-LBD TR-FRET assay): *** (a value in the range of greater than 150 to 200); Gal4-RORγ Assay Max Response (Gal4-RORγ-LBD; [2]): ** (a value in the range of greater than 90 to 150)
< 500 nM | 500 to 5000 nM | – | – | O=S(=O)(c1cccc(C(F)(F)F)c1)N1CCCc2cc(OCc3c(F)cccc3Cl)ccc21 [Example 25J, 6-((2-chloro-6-fluorobenzyl)oxy)-1-((3-(trifluoromethyl)phenyl)sulfonyl)-1,2,3,4-tetrahydroquinoline] | –
< 500 nM | 500 to 5000 nM | – | – | Cc1cccc(C)c1/C=C/c1ccc2c(c1)N(S(=O)(=O)c1cccc(OC(F)F)c1)C[C@H](CCC(=O)O)O2 [Example 89AC, (S,E)-3-(4-((3-(difluoromethoxy)phenyl)sulfonyl)-6-(2,6-dimethylstyryl)-3,4-dihydro-2H-benzo[b][1,4]-oxazin-2-yl)propanoic acid] | –
– | – | < 500 nM | 500 to 5000 nM | C/C(=C\c1ccc2c(c1)N(S(=O)(=O)c1cccc(C(F)(F)F)c1)C[C@H](N)C2)c1c(F)cccc1Cl [Example 164, (R,E)-7-(2-(2-Chloro-6-fluorophenyl)prop-1-en-1-yl)-1-((3-(trifluoromethyl)phenyl)sulfonyl)-1,2,3,4-tetrahydroquinolin-3-amine] | –
< 500 nM | < 500 nM | – | – | O=C(O)CC[C@H]1CN(S(=O)(=O)c2cccc(OC(F)F)c2)c2cc(/C=C/c3c(Cl)cccc3C(F)(F)F)ccc2O1 [Example 89DQ, (S,E)-3-(6-(2-chloro-6-(trifluoromethyl)styryl)-4-((3-(difluoromethoxy)phenyl)sulfonyl)-3,4-dihydro-2H-benzo[b][1,4]oxazin-2-yl)propanoic acid] | –
– | – | < 500 nM | < 500 nM | C/C(=C\c1ccc2c(c1)N(S(=O)(=O)c1cccc(C(F)(F)F)c1)CCS2)c1c(F)cccc1Cl [Example 187, (E)-6-(2-(2-Chloro-6-fluorophenyl)prop-1-en-1-yl)-4-((3-(trifluoromethyl)phenyl)sulfonyl)-3,4-dihydro-2H-benzo[b][1,4]thiazine] | TR-FRET Assay Max Response (RORγ-LBD; RORγ-LBD TR-FRET assay): **** (a value greater than 200); Gal4-RORγ Assay Max Response (Gal4-RORγ-LBD; [2]): ** (a value in the range of greater than 90 to 150)
– | – | < 500 nM | < 500 nM | COc1cc(S(=O)(=O)N2C[C@H](CCNC(C)=O)Oc3ccc(/C=C(\C)c4c(F)cccc4Cl)cc32)ccc1F [Example 116B, (S,E)-N-(2-(6-(2-(2-chloro-6-fluorophenyl)prop-1-en-1-yl)-4-((4-fluoro-3-methoxyphenyl)-sulfonyl)-3,4-dihydro-2H-benzo[b][1,4]oxazin-2-yl)ethyl)acetamide] | TR-FRET Assay Max Response (RORγ-LBD; RORγ-LBD TR-FRET assay): *** (a value in the range of greater than 150 to 200); Gal4-RORγ Assay Max Response (Gal4-RORγ-LBD; [2]): * (a value in the range of 30 to 90)
